Measurements published in PubChem BioAssay (NCI).
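Dose response: 5 concentrations. Exposure: 48 h. Format: 96-well plates. Endpoint: linear interpolation; highest concentration if not reached. GI50 = concentration required for 50% inhibition of growth. The concentration for full growth arrest is given as TGI.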

Assays:
Assay in all cases: NCI tumour cell line growth inhibition, 48 h
786-0 renal = tested on: 786-0 renal
T-47D breast = tested on: T-47D breast
IGROV1 ovarian = tested on: IGROV1 ovarian
HOP-92 NSCLC = tested on: HOP-92 NSCLC
EKVX NSCLC = tested on: EKVX NSCLC
OVCAR-8 ovarian = tested on: OVCAR-8 ovarian
HCT-15 colon = tested on: HCT-15 colon
OVCAR-5 ovarian = tested on: OVCAR-5 ovarian
SN12C renal = tested on: SN12C renal
PC-3 prostate = tested on: PC-3 prostate

Row | Compound | TGI (786-0 renal) | TGI (T-47D breast) | TGI (IGROV1 ovarian) | TGI (HOP-92 NSCLC) | TGI (EKVX NSCLC) | TGI (OVCAR-8 ovarian) | TGI (HCT-15 colon) | TGI (OVCAR-5 ovarian) | TGI (SN12C renal) | TGI (PC-3 prostate) | GI50 (SN12C renal)
1 | O=C1CCCc2ccc3c(c21)CC1(Cc2cc4c(cc2C1)CCCC4)C3 | 33 µM | 23.2 µM | 54.6 µM | 28 µM | 81.9 µM | 47.4 µM | 61.3 µM | 72.3 µM | 54.2 µM |  | 
2 | CC(CCC(=O)O)(c1cc(Br)c(O)c(Br)c1)c1cc(Br)c(O)c(Br)c1 | > 100 µM | > 100 µM | > 100 µM | > 100 µM | > 100 µM | > 100 µM | > 100 µM | > 100 µM | > 100 µM | > 100 µM | 
3 | N.N.NCCCCN.O=C([O-])CCl.O=C([O-])CCl.O=C([O-])CCl.O=C([O-])CCl.[Pt+4].[Pt+4] | > 50 µM |  | > 50 µM | > 50 µM | > 50 µM | > 50 µM | > 50 µM | > 50 µM | 49.8 µM |  | 9.99 µM
4 | NC(=O)c1ncn(C2CCC(CP(=O)(O)O)C2)c1N (centres undefined) | > 100 µM | > 100 µM | > 100 µM | > 100 µM | > 100 µM | > 100 µM | > 100 µM | > 100 µM | > 100 µM | > 100 µM | 
5 | CN(C)CCNc1ccccn1 | > 100 µM | > 100 µM | > 100 µM | > 100 µM | > 100 µM | > 100 µM | > 100 µM | > 100 µM | > 100 µM | > 100 µM | 
6 | C=CCn1c(-c2ccc(N=NNc3ccc(-c4n[nH]c(=S)n4CC=C)cc3)cc2)n[nH]c1=S | 25.4 µM | 4.76 µM | 15.1 µM | 39.1 µM | > 100 µM | 8.84 µM | > 100 µM | > 100 µM | > 100 µM | > 100 µM | 
7 | COC(CO[Si](C)(C)N[Si](C)(C)OCC(OC)c1ccccc1)c1ccccc1 (centres undefined) | > 100 µM | > 100 µM | > 100 µM | > 100 µM | > 100 µM | > 100 µM | > 100 µM | > 100 µM | > 100 µM | > 100 µM | 
8 | O=C1N2CCN=C2c2ccccc2C1(O)c1ccccc1 (centres undefined) | > 100 µM | > 100 µM | > 100 µM | > 100 µM | > 100 µM | > 100 µM | > 100 µM | > 100 µM | > 100 µM | > 100 µM | 
9 | Cc1cc2nc(N)n[n+]([O-])c2cc1C | > 100 µM | > 100 µM | > 100 µM |  | > 100 µM | > 100 µM | > 100 µM | > 100 µM | > 100 µM | > 100 µM | 
10 | CC(CC(C)[C@H]1CCC2[C@H]3C(CC[C@@]21C)[C@@]1(C)CCC(O)C[C@H]1C[C@@H]3O)C(=O)O (some centres undefined) | > 100 µM | > 100 µM | > 100 µM | > 100 µM | > 100 µM | > 100 µM | > 100 µM | > 100 µM | > 100 µM | > 100 µM | 
11 | COC(=O)c1ccc2c(c1)CC1(C2)Cc2ccc3c(c2C1)CCC3 (centres undefined) | > 100 µM | 69.1 µM | > 100 µM | > 100 µM | > 100 µM | > 100 µM | > 100 µM | > 100 µM | > 100 µM | 51.9 µM | 
12 | O=C(/C=C/c1ccccc1O)CC(=O)/C=C/c1ccccc1O | 16.1 µM | > 31.6 µM | 25.7 µM | 53.7 µM | 31.3 µM | 23.3 µM | 19.9 µM |  | 20.6 µM |  | 
13 | Cc1cc(CC(O)(C(F)(F)F)C(F)(F)F)cc(CC(O)(C(F)(F)F)C(F)(F)F)n1 | 6.66 µM | 7.3 µM | 11.2 µM | 5.48 µM | 10.8 µM | 12.4 µM | 12.6 µM | 19.2 µM | 9.25 µM | 10.3 µM | 
14 | CCCc1c(OC)c(O)c2c(=O)cc(OC)c3c4c(OC)cc(=O)c5c(O)c(OC)c(CCC)c(c1c23)c54 | 13.5 µM |  | 16.2 µM | 37.4 µM | 15.3 µM | 22.6 µM | 22.9 µM | 51.1 µM | 15.3 µM | 11.9 µM | 
15 | C/C(=C/CC[C@](C)(OC1OC(CO)C(O)C(O)C1OC1OC(C)C(O)C(O)C1O)[C@H]1CC[C@]2(C)[C@@H]1CC[C@@H]1[C@@]3(C)CC[C@H](O)C(C)(C)[C@@H]3C[C@H](O)[C@]12C)CO (some centres undefined) | > 100 µM | > 100 µM | > 100 µM | > 100 µM | > 100 µM | > 100 µM |  | > 100 µM | > 100 µM | > 100 µM | 
16 | Clc1ccc2nc3c(c(-c4ccccc4)nn3-c3ccccc3)c(-c3ccccc3)c2c1 | > 100 µM | > 100 µM | > 100 µM | > 100 µM | > 100 µM | > 100 µM | > 100 µM | > 100 µM | > 100 µM | > 100 µM | 
17 | NC(=O)NC1=NCCC(=O)N1CCc1c[nH]c2ccccc12 | > 100 µM | 65.5 µM | 42.1 µM |  | 48.6 µM | 32.2 µM | 73 µM | > 100 µM | 54.7 µM | 28.3 µM | 
18 | CCNc1nc2ccccc2nc1NCC | > 100 µM |  | > 100 µM |  | > 100 µM | > 100 µM | > 100 µM | > 100 µM | > 100 µM | > 100 µM | 
19 | CCOC(=O)C(NC(=O)Nc1ccccc1)(Nc1cccc(Cl)c1)C(F)(F)F (centres undefined) | > 100 µM | > 100 µM | > 100 µM | 94.6 µM | > 100 µM | > 100 µM | > 100 µM | > 100 µM | > 100 µM | > 100 µM | 
20 | c1ccc2c3c(c(N4CCNCC4)nc2c1)CCCC3 | 27.7 µM | 28.5 µM | 25 µM | 27.2 µM | 21.1 µM | 29.6 µM | 29.3 µM | 26.9 µM | 31.1 µM | 25.7 µM | 
21 | Nc1c(Cl)ncnc1NCC1(CO)CCC1 | > 100 µM |  | > 100 µM | > 100 µM | > 100 µM | > 100 µM | > 100 µM | > 100 µM | > 100 µM | > 100 µM | 
